This passage reports solubility in water results from patent US12479940B2, “Amide compound, polymerizable composition, cured material, and method of manufacturing cured material” (ADEKA CORPORATION, priority 2019, dated 2025).

The text on the data set: As the polymerization initiator (the water-soluble polymerization initiator), N,N-bis(2-hydroxyethyl)butane-1-aminium=phenyl(2,4,6-trimethylbenzoyl)phosphinate represented by A3, 1-[4-(2-hydroxyethoxy)phenyl]-2-hydroxy-2-methyl-1-propan-1-one represented by A32, and N,N-bis(2-hydroxyethyl)butane-1-aminium=9-oxo-9H thioxanthene-4-carboxylate represented by A57 were used.

The molecule `Cc1cc(C)c(C(=O)P(=O)(O)c2ccccc2)c(C)c1` [A3, N,N-bis(2-hydroxyethyl)butane-1-aminium=phenyl(2,4,6-trimethylbenzoyl)phosphinate] displayed a solubility in water of at least 1 mass %. The figure for `CC(C)(O)C(=O)c1ccc(OCCO)cc1` [A32, 1-[4-(2-hydroxyethoxy)phenyl]-2-hydroxy-2-methyl-1-propan-1-one] is at least 1 mass %.
